From patent KR20190134073A, “셀레질린을 유효성분으로 포함하는 급성 골수성 백혈병의 예방 또는 치료용 약학 조성물” (충남대학교산학협력단, priority 2018, dated 2019)

How the values were obtained:
Type in all cases: cell-based
[1] = system: U937 cells (acute myeloid leukemia cells) [급성 골수성 백혈병 세포(U937)]; experiment: cells; details: for cell killing effect: acute leukemia cells (U937), 0.5, 1, 2 and 4 mM, 24 h, in words
[2] = system: K562 cells (chronic myeloid leukemia cells) [만성 골수성 백혈병 세포(K562)]; experiment: Cell viability (CCK-8) in CML cells K562; details: K562 vs U937 or KG-1α; 0.5, 1, 2 and 4 mM; 24 h; in words, not shown in Table 1
[3] = system: KG-1α cells (refractory or relapsed acute myeloid leukemia cells) [불응성 또는 재발성 급성 골수성 백혈병 세포(KG-1α)]; experiment: Change of mitochondrial oxygen consumption rate in KG-1α cells; details: 0, 0.5, 1, 2, 4 mM, 20 min, FIG. 2, in words
[4] = system: KG-1α cells (refractory or relapsed acute myeloid leukemia cells) [불응성 또는 재발성 급성 골수성 백혈병 세포(KG-1α)]; experiment: Change of ATP production in KG-1α cells (ATPlite 1step kit); details: 4 mM, 20 min, 37℃, control PBS, FIG. 3, in words
[5] = system: KG-1α cells (refractory or relapsed acute myeloid leukemia cells) [불응성 또는 재발성 급성 골수성 백혈병 세포(KG-1α)]; experiment: Cell viability (CCK-8) in refractory/relapsed AML cells KG-1α; details: for viability at 500 µM / viability at 1000 µM / viability at 2000 µM / viability at 4000 µM: Homo sapiens, KG-1, 24 h, read-out: cell viability; for cell killing effect: KG-1α, 0.5, 1, 2 and 4 mM, 24 h, in words
[6] = Homo sapiens, U-937, 24 h, read-out: cell viability

Row | SMILES | cell killing effect [1] | cell killing effect in K562 compared with U937 or KG-1α [2] | oxygen consumption rate [3] | ATP production [4] | viability at 500 µM [5] | viability at 1000 µM [5] | viability at 2000 µM [5] | viability at 4000 µM [5] | cell killing effect [5] | viability at 500 µM [1, 6] | viability at 1000 µM [1, 6] | viability at 2000 µM [1, 6] | viability at 4000 µM [1, 6]
1 | C#CCN(C)[C@H](C)Cc1ccccc1 [셀레질린, selegiline] | 세포 사멸 효과를 모두 나타내는 것 | 만성 골수성 백혈병 세포(K562)에 대한 세포 사멸 효과 보다는 급성 골수성 백혈병 세포(U937) 또는 불응성 또는 재발성 급성 골수성 백혈병 세포(KG-1α)에 대한 세포 사멸 효과가 우수하였다 | 산소 소모율이 농도 의존적으로 감소함 | ATP 생성이 감소됨 | 93.1% | 86% | 63% | 51.8% | 세포 사멸 효과가 우수하게 나타남 | – | – | – | –
2 | Nc1ccn([C@@H]2O[C@H](CO)[C@@H](O)[C@@H]2O)c(=O)n1 [시타라빈] | 세포 사멸 효과는 우수하였으나 | – | – | – | 95.2% | 96.9% | 97.7% | 95.3% | 세포 사멸 효과를 나타내지 않은 | 45.3% | 43.9% | 40.9% | 40.7%
